Key:
TALL1 = assay: Cell cycle analysis (Ki67 and Hoechst stain), TALL1; assay type: cell-based, human; conditions: 10 μM
Protocol: (§1) FIGS. 6A-6D show 6-(4-Tert-Butylphenoxy)Pyridin-3-Amine (I3) induces G0/G1 cell cycle arrest and apoptosis in human T cell acute lymphoblastic leukemia cell lines and human breast cancer cell line HCC1187. […] Percentage of Annexin V positive (apoptotic) cell population was measured using flow cytometry.
In addition to induction of apoptosis, the proliferative arrest observed in 6-(4-Tert-Butylphenoxy)Pyridin-3-Amine (I3) treated human leukemic cell lines and breast cancer cell line also appears to be due to cell cycle arrest in G0/G1 phase of the cell cycle. Leukemic cell lines (RPMI8402, KOPTK1 and TALL1) and breast cancer cell lines were treated with 6-(4-Tert-Butylphenoxy)Pyridin-3-Amine (I3) for 48 hours and cell cycle status was determined using Ki67 and Hoechst stain.

HCC1187 = assay: Annexin V apoptosis, HCC1187; assay type: cell-based, human; conditions: 10 μM, 7 days
Protocol: as §1
(§2) To quantitate the percentage of apoptotic cells, AnnexinV and 7AAD staining was performed. Thymic cells were suspended in 300 μl of 1× AnnexinV binding buffer (BD Biosciences, San Diego, USA) and incubated with 10 μl of AnnexinV-Cy5 antibody and 10 μl of 7AAD (BD Biosciences, San Diego, USA). Samples were incubated for 15 minutes at room temperature. FACS was performed with in one hour of antibody staining.
(§3) This 6-(4-Tert-Butylphenoxy)Pyridin-3-Amine (I3) mediated proliferative arrest could be due to induction of apoptosis or cell cycle arrest during different phases of cell cycle. […] Therefore to further elucidate the mechanisms responsible for 6-(4-Tert-Butylphenoxy)Pyridin-3-Amine (I3) mediated proliferative arrest cell cycle and apoptosis analyses were carried out. […] To investigate cell death, Annexin V staining was performed and proportion of apoptotic (AnnexinV positive) cell population was determined by flow cytometry analyses after 7 days of treatment.

[1] = test system: Wnt signalling (β-catenin-TCF/LEF driven luciferase); assay: Wnt signalling TOP-luciferase assay in HeLa cells; assay type: cell-based; conditions: HeLa cells co-transfected with β-catenin and TOP-luciferase
Excerpt: One of the concerns about the activity of the chemical compound 6-(4-Tert-Butylphenoxy)Pyridin-3-Amine (I3) is its specificity towards the Notch signalling pathway. In order to test whether 6-(4-Tert-Butylphenoxy)Pyridin-3-Amine (I3) could also block other developmental pathways, Applicants have tested its ability to block the Wnt and Hedgehog signalling pathways. In summary, to measure Wnt signalling, HeLa cells were transfected with a plasmid containing a promoter consisting of TCF/LEF binding sites and thereby driving the expression of a luciferase gene (TOP-luciferase). To activate the Wnt pathway, a plasmid encoding for β-catenin was co-transfected into HeLa cells. The co-transfected cells were incubated in the presence or absence of the 6-(4-Tert-Butylphenoxy)Pyridin-3-Amine (I3) chemical compound. Transient introduction of β-catenin leads to an upregulation of Wnt signalling as measured by β-catenin-TCF/LEF driven luciferase activity.

HPB ALL leukemic cells = assay: HPB ALL xenotransplantation in NOD/SCID γc−/− mice; assay type: in vivo, human; conditions: 25 mg/kg daily from around day 15, imaged day 27
Protocol: FIGS. 8A-8B show 6-(4-Tert-Butylphenoxy)Pyridin-3-Amine (I3) treatment increases latency of leukemia development in mice. […] On day 15, leukemic cells were established in the bone marrow. Mice were treated with oil or 6-(4-Tert-Butylphenoxy)Pyridin-3-Amine (I3) for every day. Mice were imaged on day 27 using Caliper IVIS (Xenogen) live imaging system. Red and blue colour indicates the intensity of luciferase signal and correlates with the number of leukemic cells. […] NOD/SCID γc^−/− mice were transplanted with 5×10^5 RPMI 8402 (luciferase expressing) cells. Leukemia development was followed using Caliper IVIS (Xenogen) live imaging system. On day […], a daily treatment was started using oil (n=3) or 6-(4-Tert-Butylphenoxy)Pyridin-3-Amine (I3) (n=4). Animals were treated for 27 days (end point of the experiment).
The human leukemic cell lines RPMI 8402 and HPB ALL were transduced with a lentivirus containing luciferase gene constitutively expressed downstream of a CMV promoter. […] Mice were monitored for tumor development using Caliper IVIS (Xenogen) live imaging system. […]
This allowed Applicants to visualize and monitor the leukemia progression in the mice using the Caliper IVIS (Xenogen) live imaging detection system. […] Mice were monitored for leukemia development by detecting luciferase expressing leukemic cells. […]

HPB ALL = assay: Annexin V apoptosis, HPB ALL; assay type: cell-based, human; conditions: 10 μM, 7 days
Protocol: as §1, §2, §3

SMILES: CC(C)(C)c1ccc(Oc2ccc(N)cn2)cc1 [I3, 6-(4-Tert-Butylphenoxy)Pyridin-3-Amine]
- cell cycle status (TALL1; 48 hours): induces an arrest in the G0/G1 phase of the cell cycle
- increase in cells arrested in G0/G1 phase of the cell cycle (TALL1; stated jointly for RPMI8402, KOPTK1 and TALL1): 20-30%
- apoptosis (Annexin V positive cells) (HCC1187): induces apoptosis
- Wnt pathway activation [1]: does not block the Wnt pathway activation
- leukemia progression (luciferase live imaging) (HPB ALL leukemic cells): did not progress at the same rate as in the oil treated group
- apoptosis (Annexin V positive cells) (HPB ALL): induces significant apoptosis

— patent US10054581B1, “Inhibitors of notch signaling pathway and use thereof in treatment of cancers” (Ecole Polytechnique Federale de Lausanne (EPFL), priority 2011, dated 2018)
